Read-outs that look alike come from different tables or passages of the source.
How the values were obtained:
PIM3 = PIM3 (Homo sapiens (Human), UniProt Q86V86); experiment: Pim kinase binding activity, Caliper LC3000 microfluidic peptide phosphorylation assay (Example 901); format: biochemical; conditions: 55 pM PIM3, 1 μM FAM-peptide, 10 μM ATP, 90 minutes at room temperature; read-out: PIM3 LC3K (KI)
Description: (§1) PIM-1, -2, and -3 enzymes were generated as fusion proteins expressed in bacteria and purified by IMAC column chromatography (Sun, X., Chiu, J. F., and He, Q. Y. (2005) Expert Rev. Proteomics, 2:649-657). A fluorescent-labeled Pim-specific peptide substrate, was custom synthesized by American Peptide Company (Sunnyvale, Calif.). Reaction Buffer contained 10 mM HEPES, pH 7.2, 10 mM MgCl2, 0.01% Tween 20, 2 mM DTT. Termination Buffer contained 190 mM HEPES, pH 7.2, 0.015% Brij-35, 0.2% Coating Reagent 3 (Caliper Life Sciences, Hopkinton, Mass.), 20 mM EDTA. Separation Buffer contained 100 mM HEPES, pH 7.2, 0.015% Brij-35, 0.1% Coating Reagent 3, 1:200 Coating Reagent 8 (Caliper Life Sciences, Hopkinton, Mass.), 10 mM EDTA and 5% DMSO.
(§2) PIM reactions were carried out in a final volume of 10 μL per well in a 384-well plate. A standard enzymatic reaction, initiated by the addition of 5 μL 2×ATP and test compound to 5 μL of 2× enzyme and FAM-peptide, contained 20 pM PIM1, 50 pM PIM2, or 55 pM PIM3, 1 μM FAM-peptide, and 10 μM ATP, in Reaction Buffer. After 90 minutes of incubation at room temperature, the phosphorylation reaction was stopped by the addition of 10 μL Termination Buffer. The product and substrate in each independent reaction were separated on a 12-sipper microfluidic chip (Caliper Life Sciences, Hopkinton, Mass.) run on a Caliper LC3000® (Caliper Life Sciences, Hopkinton, Mass.). The separation of product and substrate was optimized by choosing voltages and pressure using Caliper's Optimizer software (Hopkinton, Mass.). The separation conditions used a downstream voltage of −500V, an upstream voltage of −2150V, and a screening pressure of −1.2 psi. The product and substrate fluorophore were excited at 488 nm and detected at 530 nm. Substrate conversion was calculated from the electropherogram using HTS Well Analyzer software (Caliper Life Sciences, Hopkinton, Mass.). Ki values for the test compound were calculated.

PIM2 = PIM2 (Homo sapiens (Human), UniProt Q9P1W9); experiment: as above; format: biochemical; conditions: 50 pM PIM2, 1 μM FAM-peptide, 10 μM ATP, 90 minutes at room temperature; read-out: PIM2 LC3K (KI)
Description: as §1, with “A” for “PIM-1, -2, and -3 enzymes were generated as fusion proteins expressed in bacteria and purified by IMAC column chromatography (Sun, X., Chiu, J. F., and He, Q. Y. (2005) Expert Rev. Proteomics, 2:649-657). A”
as §2, with “A standard enzymatic reaction, initiated by the addition of 5 μL 2×ATP and test compound to 5 μL of 2× enzyme and FAM-peptide, contained 20 pM PIM1, 50 pM PIM2, or 55 pM PIM3, 1 μM FAM-peptide, and 10 μM ATP, in Reaction Buffer.” left out, “The product and substrate fluorophore were excited at 488 nm and detected at 530 nm.” left out

BaF3 PIM1 cells = experiment: In vitro cell proliferation potency assay, Cell Titer Glo (Example 902); format: cell-based, murine; conditions: Mus musculus
Description: (§3) BaF3 parental line was obtained from the DSMZ repository. BaF3 lines transfected with PIM 1 or PIM2 were generated. Mouse IL-3 was purchased from R&D Systems. G418 was purchased from Clontech. Media for BaF3 parental line contained RPMI, 10% FBS, 2 mM L-Glutamine, 2 ng/mL mIL-3. Media for BaF3 PIM1 & 2 lines contained RPMI, 10% FBS, 2 mM L-Glutamine, […]. Media for MM1.S (multiple myeloma cells) line contained RPMI, 10% FBS, 2 mM L-Glutamine.
(§4) BaF3, a murine interleukin-3 dependent pro-B cell line, parental cells, BaF3 PIM1 cells, BaF3 PIM2 cells, and MM1.S (multiple myeloma) cells were seeded at 2 k/well, 5 k/well, 5 k/well, and 10 k/well respectively, in a 384-well plate, at 45 μL/well. Test compound was added at 5 μL/well. BaF3 cells (parental and transfected) were incubated overnight, while MM1.S cells were incubated for 72 hours at 37° C., 5% CO2. Cell Titer Glo Reagent (Promega) was added at 50 μL/well, the plates were incubated for 30 minutes, and their luminescence read on an HT Analyst. IC50/EC50 values for the test compound were calculated.

BaF3 parental cells = experiment: as above; format: cell-based, murine; conditions: Mus musculus
Description: as §3, §4

PIM1 = PIM1 (Homo sapiens (Human), UniProt P11309); experiment: Pim kinase binding activity, Caliper LC3000 microfluidic peptide phosphorylation assay (Example 901); format: biochemical; conditions: 20 pM PIM1, 1 μM FAM-peptide, 10 μM ATP, 90 minutes at room temperature; read-out: PIM1 LC3K (KI)
Description: as §1, §2

[1] = system: MM1.S (multiple myeloma) cells; experiment: In vitro cell proliferation potency assay, Cell Titer Glo (Example 902); format: cell-based; conditions: Homo sapiens, incubated for 72 hours, read-out: Prolif MM1S ATP (EC50)
Description: as §3, §4

[2] = BaF3 line transfected with PIM1, incubated overnight, read-out: Prolif BaF3 PIM1 (IC50)
[3] = BaF3 parental line, medium with 2 ng/mL mIL-3, incubated overnight, read-out: Prolif BaF3 IL3 (IC50)

Sequence of PIM1 (P11309 whole entry): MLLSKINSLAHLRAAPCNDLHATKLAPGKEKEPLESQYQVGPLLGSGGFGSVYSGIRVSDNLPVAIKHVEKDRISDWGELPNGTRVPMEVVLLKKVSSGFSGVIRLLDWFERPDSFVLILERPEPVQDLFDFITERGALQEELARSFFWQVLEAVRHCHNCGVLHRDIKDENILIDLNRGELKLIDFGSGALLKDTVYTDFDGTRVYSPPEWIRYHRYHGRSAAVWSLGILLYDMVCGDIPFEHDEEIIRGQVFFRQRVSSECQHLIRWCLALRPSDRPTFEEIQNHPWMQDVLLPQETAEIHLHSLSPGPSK
Sequence of PIM2 (Q9P1W9 whole entry, the tested form may be a part): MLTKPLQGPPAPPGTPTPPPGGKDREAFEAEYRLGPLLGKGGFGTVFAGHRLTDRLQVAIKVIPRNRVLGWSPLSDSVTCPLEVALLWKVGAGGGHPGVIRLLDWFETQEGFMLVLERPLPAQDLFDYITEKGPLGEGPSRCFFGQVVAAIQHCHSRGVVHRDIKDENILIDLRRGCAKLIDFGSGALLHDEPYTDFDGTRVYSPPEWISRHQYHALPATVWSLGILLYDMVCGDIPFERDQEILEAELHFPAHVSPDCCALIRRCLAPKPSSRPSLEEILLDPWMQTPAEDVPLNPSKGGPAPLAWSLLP

| Structure (SMILES) | Ki (PIM3) [µM] | Ki (PIM2) [µM] | IC50 (BaF3 PIM1 cells; [2]) [µM] | Ki (PIM1) [µM] | EC50 [1] [µM] | IC50 (BaF3 parental cells; [3]) [µM] | IC50 (BaF3 PIM1 cells; BaF3, read-out: Prolif BaF3 PIM1 (IC50)) [µM] | IC50 (BaF3 parental cells; BaF3, read-out: Prolif BaF3 IL3 (IC50)) [µM] |
| --- | --- | --- | --- | --- | --- | --- | --- | --- |
| Cn1ncc(NC(=O)c2nc(-c3ccccc3F)cnc2N)c1N1CCC[C@@H](N)CC1 [Example 141, (R)-3-amino-N-(5-(4-aminoazepan-1-yl)-1-methyl-1H-pyrazol-4-yl)-6-(2-fluorophenyl)pyrazine-2-carboxamide] | 0.000295 | 0.00352 | 0.219 | – | – | 1.1 | – | – |
| Cn1ncc(NC(=O)c2nc(-c3c(F)cccc3F)sc2N)c1N1CCC[C@H](N)C1 [Example 106, (S)-5-amino-N-(5-(3-aminopiperidin-1-yl)-1-methyl-1H-pyrazol-4-yl)-2-(2,6-difluorophenyl)thiazole-4-carboxamide] | – | – | 3.8 | – | 4.2 | 6.6 | – | – |
| Cn1ncc(NC(=O)c2nc(-c3c(F)cccc3F)sc2N)c1OCC1CCNCC1 [Example 115, 5-amino-2-(2,6-difluorophenyl)-N-(1-methyl-5-(piperidin-4-ylmethoxy)-1H-pyrazol-4-yl)thiazole-4-carboxamide] | 0.00108 | 0.0461 | 4.5 | 0.00114 | – | 6.2 | – | – |
| Cn1ncc(NC(=O)c2nc(-c3c(F)cccc3F)sc2N)c1N1CC[C@H](CN)C1 [Example 135, (R)-5-amino-N-(5-(3-(aminomethyl)pyrrolidin-1-yl)-1-methyl-1H-pyrazol-4-yl)-2-(2,6-difluorophenyl)thiazole-4-carboxamide] | 0.000344 | 0.0106 | 0.66 | 0.000506 | – | 9.3 | – | – |
| Cn1ncc(NC(=O)c2nc(-c3c(F)cccc3F)sc2N)c1OC1CCNCC1 [Example 120, 5-amino-2-(2,6-difluorophenyl)-N-(1-methyl-5-(piperidin-4-yloxy)-1H-pyrazol-4-yl)thiazole-4-carboxamide] | 0.0011 | – | 7.8 | 0.00197 | – | 25 | – | – |
| Cn1ncc(NC(=O)c2nc(-c3c(F)cccc3F)sc2N)c1N1CCC(CN)CC1 [Example 133, 5-amino-N-(5-(4-(aminomethyl)piperidin-1-yl)-1-methyl-1H-pyrazol-4-yl)-2-(2,6-difluorophenyl)thiazole-4-carboxamide] | – | – | 0.258 | – | – | 25 | – | – |
| Cn1ncc(NC(=O)c2nc(-c3ccccc3F)cnc2N)c1N1CCC(N)CC1 [Example 122, 3-amino-N-(5-(4-aminopiperidin-1-yl)-1-methyl-1H-pyrazol-4-yl)-6-(2-fluorophenyl)pyrazine-2-carboxamide] | 0.000962 | 0.0147 | 1.1 | 0.000281 | – | 11.9 | – | – |
| Cn1ncc(NC(=O)c2nc(-c3c(F)cccc3F)sc2N)c1N1CCC(N)CC1 [Example 108, 5-amino-N-(5-(4-aminopiperidin-1-yl)-1-methyl-1H-pyrazol-4-yl)-2-(2,6-difluorophenyl)thiazole-4-carboxamide] | – | – | 0.615 | – | 8.2 | 4.3 | – | – |
| Cn1ncc(NC(=O)c2nc(-c3ccccc3F)ccc2N)c1OCC1CCNCC1 [Example 117, 3-amino-6-(2-fluorophenyl)-N-(1-methyl-5-(piperidin-4-ylmethoxy)-1H-pyrazol-4-yl)picolinamide] | – | – | – | – | – | – | 4.9 | > 25 |
| Cn1ncc(NC(=O)c2nc(-c3ccccc3F)cnc2N)c1N1CCC[C@H](N)C1 [Example 119, (S)-3-amino-N-(5-(3-aminopiperidin-1-yl)-1-methyl-1H-pyrazol-4-yl)-6-(2-fluorophenyl)pyrazine-2-carboxamide] | 0.000305 | 0.00213 | 1.3 | – | – | 5.2 | – | – |
| Nc1sc(-c2c(F)cccc2F)nc1C(=O)Nc1cn[nH]c1N1CCC[C@H](N)C1 [Example 103, (S)-5-amino-N-(5-(3-aminopiperidin-1-yl)-1H-pyrazol-4-yl)-2-(2,6-difluorophenyl)thiazole-4-carboxamide] | 0.00489 | 0.0551 | 7.3 | 0.0065 | 9.1 | 10.6 | – | – |

Continued, in another order:

| Ki (PIM3) [µM] | Ki (PIM2) [µM] | IC50 (BaF3 PIM1 cells; [2]) [µM] | Ki (PIM1) [µM] | EC50 [1] [µM] | Structure (SMILES) | IC50 (BaF3 parental cells; [3]) [µM] | IC50 (BaF3 PIM1 cells; BaF3, read-out: Prolif BaF3 PIM1 (IC50)) [µM] | IC50 (BaF3 parental cells; BaF3, read-out: Prolif BaF3 IL3 (IC50)) [µM] |
| --- | --- | --- | --- | --- | --- | --- | --- | --- |
| 0.000159 | 0.00165 | 2.3 | 0.000115 | – | Cn1ncc(NC(=O)c2nc(-c3ccccc3F)ccc2N)c1N1CCCC(N)CC1 (stereo not drawn) [Example 114, 3-amino-N-(5-(4-aminoazepan-1-yl)-1-methyl-1H-pyrazol-4-yl)-6-(2-fluorophenyl)picolinamide] | 5.5 | – | – |
| – | – | 1.5 | – | 16.1 | Cn1ncc(NC(=O)c2nc(-c3ccccc3F)ccc2N)c1N1CCC(N)CC1 [Example 110, 3-amino-N-(5-(4-aminopiperidin-1-yl)-1-methyl-1H-pyrazol-4-yl)-6-(2-fluorophenyl)picolinamide] | 12 | – | – |
| 0.00133 | 0.0102 | 5.1 | 0.000343 | – | Cn1ncc(NC(=O)c2nc(-c3ccccc3F)ccc2N)c1N1CCC[C@H](CN)C1 [Example 129, (R)-3-amino-N-(5-(3-(aminomethyl)piperidin-1-yl)-1-methyl-1H-pyrazol-4-yl)-6-(2-fluorophenyl)picolinamide] | 21.5 | – | – |
| – | – | 4.2 | – | 7.1 | Cn1ncc(NC(=O)c2nc(-c3ccccc3F)ccc2N)c1N1CCC[C@H](N)C1 [Example 111, (S)-3-amino-N-(5-(3-aminopiperidin-1-yl)-1-methyl-1H-pyrazol-4-yl)-6-(2-fluorophenyl)picolinamide] | 13.2 | – | – |
| – | – | 0.634 | – | – | Cn1ncc(NC(=O)c2nc(-c3ccccc3F)ccc2N)c1N1CC[C@H](CN)C1 [Example 136, (R)-3-amino-N-(5-(3-(aminomethyl)pyrrolidin-1-yl)-1-methyl-1H-pyrazol-4-yl)-6-(2-fluorophenyl)picolinamide] | 5.9 | – | – |
| – | – | 1.4 | – | – | Cn1ncc(NC(=O)c2nc(-c3ccccc3F)ccc2N)c1N1CC[C@@H](CN)C1 [Example 134, (S)-3-amino-N-(5-(3-(aminomethyl)pyrrolidin-1-yl)-1-methyl-1H-pyrazol-4-yl)-6-(2-fluorophenyl)picolinamide] | 7.8 | – | – |

Reference: patent publication US8669361B2, “Pyrazol-4-yl-heterocyclyl-carboxamide compounds and methods of use” (Genentech, Inc., priority 2010, dated 2014)
